Assay results reported in paper PMC8795539 (Proceedings of the National Academy of Sciences of the …, 2022).

Experiments:
[1] = target: T1, SmoA (Atu3277), flavin mononucleotide reductase (Agrobacterium fabrum, UniProt Q7CS24); assay: copurification, LC-MS of heat-released flavin; assay type: binding
T1 sequence (Q7CS24 1-174): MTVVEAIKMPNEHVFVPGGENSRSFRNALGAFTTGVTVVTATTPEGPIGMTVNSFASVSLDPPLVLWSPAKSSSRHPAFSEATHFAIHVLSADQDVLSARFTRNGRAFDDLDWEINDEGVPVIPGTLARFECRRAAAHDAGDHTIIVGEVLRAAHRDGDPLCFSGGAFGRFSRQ

[2] = target: T2, SmoB (Atu3278), 6-OG reductase (Agrobacterium fabrum, UniProt A9CEY6); assay: ITC; assay type: binding
T2 sequence (A9CEY6 1-297): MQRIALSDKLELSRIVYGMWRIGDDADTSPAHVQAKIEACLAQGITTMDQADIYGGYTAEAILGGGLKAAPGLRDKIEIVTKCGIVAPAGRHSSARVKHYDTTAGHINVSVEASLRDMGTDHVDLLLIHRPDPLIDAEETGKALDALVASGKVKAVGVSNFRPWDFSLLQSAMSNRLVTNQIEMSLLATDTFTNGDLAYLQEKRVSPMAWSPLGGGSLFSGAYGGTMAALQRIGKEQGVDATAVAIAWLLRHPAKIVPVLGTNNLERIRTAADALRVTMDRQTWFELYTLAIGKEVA

SEC-MALS = target: the molecule itself; assay: SEC-MALS
purified protein = substrate: NC(=O)C1=CN([C@@H]2O[C@H](COP(=O)(O)OP(=O)(O)OC[C@H]3O[C@@H](n4cnc5c(N)ncnc54)[C@H](O)[C@@H]3O)[C@@H](O)[C@H]2O)C=CC1; assay: purified protein; details: FMN

## Cc1cc2nc3c(=O)[nH]c(=O)nc-3n(C[C@H](O)[C@H](O)[C@H](O)COP(=O)(O)O)c2cc1C [FMN]
[1]
  copurification, LC-MS of heat-released flavin: to reveal that flavin mononucleotide (FMN) was the sole detectable flavin

## NC(=O)C1=CN([C@@H]2O[C@H](COP(=O)(O)OP(=O)(O)OC[C@H]3O[C@@H](n4cnc5c(N)ncnc54)[C@H](OP(=O)(O)O)[C@@H]3O)[C@@H](O)[C@H]2O)C=CC1 [NADPH]
[2]
  Kd: ~2000 nM

B1: SmoC (Atu3279), SQ monooxygenase from Agrobacterium tumefaciens C58 (enzyme)
chain: MTVVPVTSADLDAAEVSWFSALCSDDYAYLGVPDGSLRSSFEHCSDIVKKAEELGFRNILCPSSYQVGQDTLSFVAGCAPISDRINFLAAIRCGEMQPIMLARTVATLDHMLKGRLTLNVISSDFPGEVADSAFRYKRSHEVVEILRQAWTRDTIDHDGEIYQFKGVSTEPARPYQLNGGPLLYFGGYSPDALELCGAQCDVYLMWPETKDQLADRMRAAHERAAAHGRTLDYGLRVHMVVRDTEQEAREYADHLVSKLDDEYGQLIRNRAHDSGSLGVSHQARARELADKFGYVEPNLWTGIGRARSGCGAALVGSTDQVLSALEEYQKMGIRAFILSGYPHLDEAEHFGTKVLPQMKTCSLPHAYGRVPSETPATPLGNGERH
SEC-MALS
  stoichiometry N: 2

B2: SmoA (Atu3277), flavin mononucleotide reductase (Agrobacterium fabrum str. C58) (protein)
chain: MTVVEAIKMPNEHVFVPGGENSRSFRNALGAFTTGVTVVTATTPEGPIGMTVNSFASVSLDPPLVLWSPAKSSSRHPAFSEATHFAIHVLSADQDVLSARFTRNGRAFDDLDWEINDEGVPVIPGTLARFECRRAAAHDAGDHTIIVGEVLRAAHRDGDPLCFSGGAFGRFSRQ
Purified protein
  Km: 35 ± 5 µM
